Entries after “also recorded” stand apart in the source; their conditions may differ.
What was measured:
Bma-SLO-1F [1] = molecular target: T1, Bma-SLO-1F (Brugia malayi, UniProt A0A0J9Y9H3); experiment: Two-electrode voltage clamp of Xenopus oocytes expressing Bma-SLO-1F; assay type: cell-based
Protocol: (§1) Defolliculated Xenopus laevis oocytes were purchased from Ecocyte Bioscience (Austin, TX, USA) and Xenopus 1 Corp (Dexter, MI, USA). Heterologous expression of the Bma-SLO-1F receptor was achieved by injecting 15 ng of cRNA in a total volume of 50 nL in nuclease-free water. Each oocyte was microinjected into the cytoplasm of the animal pole region using a Drummond Nanoject II microinjector (Drummond Scientific, Broomall, PA, USA). After injection, oocytes were incubated at 17°C in a sterile 96-well culture plate containing 300 μl of incubation solution (100 mM NaCl, 2 mM KCl, 1.8 mM CaCl2.2H2O, 1 mM MgCl2.6H2O, 5 mM HEPES, 2.5 mM Na pyruvate, 100 U/mL penicillin and 100 μg/mL streptomycin, pH 7.5) in each well. Incubation solution was changed daily during the period of incubation. The same procedure was also conducted for the Ovo-SLO-1A receptor. Experiments were performed on oocytes within 5 – 6 days post injection.
(§2) TEVC was conducted at room temperature by impaling oocytes with two microelectrodes; a current injecting electrode, Im, used to inject the required current for holding the membrane at a set voltage, and a voltage sensing electrode, Vm. The microelectrodes were pulled using a Flaming/Brown horizontal electrode puller (Model P-97; Sutter Instruments, Novato, CA, USA) and filled with 3 M KCl. Each electrode tip was broken with a piece of Kimwipe paper (Kimtech Science, Fisher) to achieve a resistance of 2 – 5 MΏ in recording solution (88 mM NaCl, 2.5 mM KCl, 1 mM MgCl2.6H2O, 1.8 mM CaCl2.2H2O and 5 mM HEPES, at pH 7.4). […] Amplified signals were converted from analog to digital format by a Digidata 1322A digitizer (Molecular Devices, CA, USA) and all data were acquired on a desktop computer with the Clampex 10.3 data acquisition software (Molecular Devices, Sunnyvale, CA, USA).
(§3) For our recordings, the times for drug applications were selected to allow the currents recorded to reach a stable plateau. At the beginning of experiments the Xenopus oocytes were perfused with drug free recording solution for 1 min, to obtain stable initial resting currents. […] Washing of the Xenopus oocytes then followed for 3 mins.
(§4) GraphPad Prism 10.1.1 software (GraphPad Software Inc., USA) was used to generate Concentration-response curves using the log agonist vs. response equation (variable slope) to estimate EC50, Rmax and Hillslope (nH) values for both Bma-SLO-1F and Ovo-SLO-1A channels. We also used the unpaired two-tailed Student’s t-test to test for statistical significance. A p value < 0.05 was deemed significant. The analyzed results were expressed as mean ± S.E.M.
(§5) The results were expressed as the mean ± S.E.M.
(§6) Results were expressed as the mean ± S.E.M.

mammalian BK channel = system: mammalian BK channel; set-up: method as in PMID 24561672; settings: mammalian BK channel activator; cited from earlier work
Ovo-SLO-1A [2] = molecular target: T2, Ovo-SLO-1A (Onchocerca volvulus, UniProt A0A2K6W0E9); experiment: Two-electrode voltage clamp of Xenopus oocytes expressing Ovo-SLO-1A; assay type: cell-based
T2 sequence (A0A2K6W0E9 entry or part of it): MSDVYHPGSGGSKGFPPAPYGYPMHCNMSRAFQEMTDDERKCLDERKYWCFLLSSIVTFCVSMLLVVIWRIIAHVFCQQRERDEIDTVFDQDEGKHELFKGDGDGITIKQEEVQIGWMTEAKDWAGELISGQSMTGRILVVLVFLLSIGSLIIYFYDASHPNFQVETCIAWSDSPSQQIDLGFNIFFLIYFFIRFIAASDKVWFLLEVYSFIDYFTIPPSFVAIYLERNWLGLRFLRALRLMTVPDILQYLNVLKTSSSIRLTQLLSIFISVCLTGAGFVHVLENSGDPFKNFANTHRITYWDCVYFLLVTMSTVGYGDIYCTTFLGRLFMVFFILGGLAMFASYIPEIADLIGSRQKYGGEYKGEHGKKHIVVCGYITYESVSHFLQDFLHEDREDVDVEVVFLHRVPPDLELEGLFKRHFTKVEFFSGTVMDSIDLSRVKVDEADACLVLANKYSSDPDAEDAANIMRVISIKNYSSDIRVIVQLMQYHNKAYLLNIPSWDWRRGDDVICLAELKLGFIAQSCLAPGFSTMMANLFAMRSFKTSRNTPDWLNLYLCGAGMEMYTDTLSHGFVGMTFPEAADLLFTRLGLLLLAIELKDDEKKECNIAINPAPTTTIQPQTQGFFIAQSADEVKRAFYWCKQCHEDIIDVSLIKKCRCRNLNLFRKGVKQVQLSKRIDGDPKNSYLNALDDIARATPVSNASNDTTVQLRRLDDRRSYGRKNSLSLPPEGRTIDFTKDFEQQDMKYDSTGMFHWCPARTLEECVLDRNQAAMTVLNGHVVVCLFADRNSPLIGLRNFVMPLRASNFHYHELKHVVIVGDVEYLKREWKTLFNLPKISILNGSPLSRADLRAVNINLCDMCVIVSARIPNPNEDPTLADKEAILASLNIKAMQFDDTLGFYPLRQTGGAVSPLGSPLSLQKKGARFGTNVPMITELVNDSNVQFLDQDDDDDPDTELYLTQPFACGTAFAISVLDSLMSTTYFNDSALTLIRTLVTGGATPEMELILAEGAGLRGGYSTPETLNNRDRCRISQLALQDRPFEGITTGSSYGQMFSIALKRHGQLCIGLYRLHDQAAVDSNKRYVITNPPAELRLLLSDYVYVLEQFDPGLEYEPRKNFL
Protocol: as §1, §2, §3, §4, §5, §6

[3] = system: water injected oocytes (endogenous channels of Xenopus laevis); experiment: Electrophysiology of water injected oocytes (control); assay type: cell-based
Protocol: as §2
(§7) Briefly, oocytes expressing either Bma-SLO-1F or Ovo-SLO-1A channels were impaled and subjected to a current-voltage protocol that consisted of 500 ms voltage steps from -120 to + 60 mV in 20 mV increments, starting from a holding position of -70 mV for 1 s between each step. Plateau currents were recorded at a frequency of 5000 Hz during clamping and perfused with recording solution: (88 mM NaCl, 2.5 mM, KCl, 1 mM MgCl2.6H2O, 1.8 mM CaCl2.2H2O and 5 mM HEPES, at pH 7.4). The results of the voltage steps were evaluated and analyzed using the ClampFit 10.3 software (Molecular Devices), whereas current-voltage curves (IVCs) were prepared using Graphpad Prism 10.1.1(GraphPad Software, Inc., USA).
(§8) To obtain current-voltage curves (IVCs) from our voltage steps experiments, plateau currents elicited at each step potential (-120 to + 60 mV) were acquired for individual oocytes in Clampfit 10.3 (Molecular Devices, Sunnyvale, CA, USA). […] Subsequently, statistical differences for slope values among treatment groups were analyzed using ANOVA, followed by the Tukey multiple comparison post-hoc test. Results were expressed as mean ± S.E.M.

Bma-SLO-1F [4] = molecular target: T1, Bma-SLO-1F; experiment: Voltage step electrophysiology (current-voltage relationship), Bma-SLO-1F oocytes; assay type: cell-based
Protocol: as §7
as §8, with “USA). Mean currents for all replicate oocytes were plotted against their corresponding voltage step potentials to obtain IVCs using Graphpad Prism 10.1.1 software (GraphPad Software, Inc., USA).” for “USA).”

Ovo-SLO-1A [5] = molecular target: T2, Ovo-SLO-1A; experiment: Voltage step electrophysiology (current-voltage relationship), Ovo-SLO-1A oocytes; assay type: cell-based; settings: 1 µM emodepside
Protocol: as §7
as §8, with “USA). Mean currents for all replicate oocytes were plotted against their corresponding voltage step potentials to obtain IVCs using Graphpad Prism 10.1.1 software (GraphPad Software, Inc., USA).” for “USA).”

[6] = 3 µM GoSlo-SR-5-69 + 0.3 µM emodepside, Ca2+ replaced with equimolar Co2+
[7] = 3 µM GoSlo-SR-5-69 alone, +20 mV
[8] = 3 µM GoSlo-SR-5-69 on 0.3 µM emodepside response
[9] = 0.3 µM emodepside + 3 µM GoSlo-SR-5-69 co-applied, n = 6
[10] = absence of GoSlo-SR-5-69, modulation experiment, n = 6
[11] = emodepside alone, +20 mV, n = 10
[12] = emodepside concentration-response, n = 10
[13] = in the presence of 3 µM GoSlo-SR-5-69, n = 6

T1 sequence (A0A0J9Y9H3 entry or part of it): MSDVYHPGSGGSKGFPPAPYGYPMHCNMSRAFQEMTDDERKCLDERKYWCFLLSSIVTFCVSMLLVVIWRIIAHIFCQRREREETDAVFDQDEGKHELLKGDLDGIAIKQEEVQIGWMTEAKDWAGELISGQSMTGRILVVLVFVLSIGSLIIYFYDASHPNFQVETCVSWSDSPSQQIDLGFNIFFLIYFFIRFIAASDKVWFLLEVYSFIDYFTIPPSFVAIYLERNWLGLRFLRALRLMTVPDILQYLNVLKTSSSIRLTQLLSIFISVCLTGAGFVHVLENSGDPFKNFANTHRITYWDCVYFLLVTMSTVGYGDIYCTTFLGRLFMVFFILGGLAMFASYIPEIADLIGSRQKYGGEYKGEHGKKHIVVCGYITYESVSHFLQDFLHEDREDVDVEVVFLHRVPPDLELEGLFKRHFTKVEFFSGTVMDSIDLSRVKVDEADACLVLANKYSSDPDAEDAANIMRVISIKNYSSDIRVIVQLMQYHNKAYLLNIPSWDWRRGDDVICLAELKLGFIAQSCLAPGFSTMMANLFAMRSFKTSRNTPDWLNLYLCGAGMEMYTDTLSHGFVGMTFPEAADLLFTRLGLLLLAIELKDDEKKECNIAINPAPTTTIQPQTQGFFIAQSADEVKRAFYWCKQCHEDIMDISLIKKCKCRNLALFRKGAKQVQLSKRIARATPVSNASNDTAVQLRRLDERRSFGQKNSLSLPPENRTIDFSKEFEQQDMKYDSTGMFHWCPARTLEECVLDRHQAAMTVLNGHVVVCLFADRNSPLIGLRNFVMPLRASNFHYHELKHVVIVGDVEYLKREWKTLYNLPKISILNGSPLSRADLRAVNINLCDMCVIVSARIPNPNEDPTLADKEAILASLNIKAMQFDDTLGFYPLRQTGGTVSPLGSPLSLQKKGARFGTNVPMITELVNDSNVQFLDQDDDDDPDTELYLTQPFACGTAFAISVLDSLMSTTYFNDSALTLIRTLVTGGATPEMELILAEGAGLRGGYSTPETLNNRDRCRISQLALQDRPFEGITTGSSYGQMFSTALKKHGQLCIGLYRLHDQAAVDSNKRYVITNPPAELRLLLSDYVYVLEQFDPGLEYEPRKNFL

Q: With `Nc1c(S(=O)(=O)O)cc(Nc2ccc3c(c2)CCCC3)c2c1C(=O)c1ccccc1C2=O` [GoSlo-SR-5–69] as the compound, how does the “increase in emodepside Rmax” value (Bma-SLO-1F [1]; 3 µM GoSlo-SR-5-69) read?
A: The value was 1.7 fold.

Q: And the “increase in sensitivity to emodepside (EC50 shift)” value (Bma-SLO-1F [1]; 3 µM GoSlo-SR-5-69)?
A: Its value is 7 fold.

Q: What about the “potentiation of emodepside responses in the absence of extracellular Ca2+” value (Bma-SLO-1F [1]; [6]) of the same compound?
A: Its value is “still potentiated”.

Q: And the “agonist activity (channel activation) alone” value (Bma-SLO-1F [1]; [7])?
A: The value was “lacks agonist activity; also recorded: does not by itself activate”.

Q: And the “percentage increase in peak currents of the emodepside response” value (Bma-SLO-1F [1]; [8])?
A: The value was 200%.

Q: What about the EC50 (mammalian BK channel) of the same compound?
A: Its EC50 is 251 nM.

Q: And the “change in emodepside Rmax” value (Ovo-SLO-1A [2]; 3 µM GoSlo-SR-5-69)?
A: The value was “significantly increased”.

Q: What about the “shift in emodepside EC50” value (Ovo-SLO-1A [2]; 3 µM GoSlo-SR-5-69) of the same compound?
A: Its value is “did not cause a significant shift; also recorded: remained unchanged”.

Q: What about the “potentiation of emodepside responses in the absence of extracellular Ca2+” value (Ovo-SLO-1A [2]; [6]) of the same compound?
A: Its value is “still potentiated”.

Q: What about the “agonist activity (channel activation) alone” value (Ovo-SLO-1A [2]; [7]) of the same compound?
A: The value was “lacks agonist activity; also recorded: does not by itself activate”.

Q: And the “percentage increase in peak currents of the emodepside response” value (Ovo-SLO-1A [2]; [8])?
A: Its value is 65.2%.

Q: What about the “current produced in water injected oocytes” value ([3]; 3 µM GoSlo-SR-5-69, +20 mV, also seen in SLO-1 expressing oocytes) of the same compound?
A: Its value is “slowly inactivating inward current”.

Q: For emodepside, which slope conductance (Bma-SLO-1F [4]; 1 µM emodepside, voltage steps -120 to +60 mV, n = 6 (basal 2.4 ± 0.3 µS)) is on record?
A: Its slope conductance is 12 ± 1.0 µS.

Q: And the reversal potential (Bma-SLO-1F [4]; all current voltage plots, with and without 1 µM emodepside)?
A: Its reversal potential is roughly -72 mV.

Q: And the reversal potential (Ovo-SLO-1A [5]; no change from basal)?
A: The reversal potential was -71 mV.

Q: And the slope conductance (Ovo-SLO-1A [5]; voltage steps -120 to +60 mV, n = 6 (basal 26 ± 2.9 µS))?
A: Its slope conductance is 61 ± 4.4 µS.

Q: What about the “current (Imax) response” value (Bma-SLO-1F [1]; [9]) of the same compound?
A: Its value is 2799 ± 100 nA.

Q: What about the “current (Imax) response” value (Bma-SLO-1F [1]; 0.3 µM emodepside alone, n = 6) of the same compound?
A: The value was 954 ± 355 nA.

Q: What about the Rmax of emodepside (Bma-SLO-1F [1]; [10]) of the same compound?
A: The Rmax of emodepside was 2679 ± 318 nA.

Q: What about the “maximum response (Rmax)” value (Bma-SLO-1F [1]; [11]) of the same compound?
A: The value was 6446 ± 287 nA.

Q: And the Hillslope (Bma-SLO-1F [1]; [12])?
A: Its Hillslope is 1.1 ± 0.1.

Q: And the Rmax of emodepside (Bma-SLO-1F [1]; [13])?
A: Its Rmax of emodepside is 4493 ± 433 nA.

Q: And the current response (Ovo-SLO-1A [2]; [9])?
A: The current response was 6735 ± 272 nA.

Q: What about the current response (Ovo-SLO-1A [2]; 0.3 µM emodepside alone, n = 6) of the same compound?
A: Its current response is 4170 ± 355 nA.

Q: And the “sensitivity of Ovo-SLO-1A to emodepside relative to Bma-SLO-1F (EC50 ratio)” value (Ovo-SLO-1A [2]; Ovo-SLO-1A vs Bma-SLO-1F)?
A: Its value is 3.5 times.

Q: What about the Rmax of emodepside (Ovo-SLO-1A [2]; [10]) of the same compound?
A: Its Rmax of emodepside is 2454 ± 87 nA.

Q: And the “maximum response (Rmax)” value (Ovo-SLO-1A [2]; [11])?
A: Its value is 10762 ± 478 nA.

Q: And the Hillslope (Ovo-SLO-1A [2]; [12])?
A: Its Hillslope is 1.2 ± 0.1.

Q: And the Rmax of emodepside (Ovo-SLO-1A [2]; [13])?
A: Its Rmax of emodepside is 4928 ± 830 nA.

Q: And the “response of water injected oocytes” value ([3]; 0.3 µM emodepside, +20 mV)?
A: The value was “no response”.

Q: And the “effect on current and conductance of water injected oocytes” value ([3]; 1 µM emodepside, voltage steps)?
A: The value was “little or no agonist effects; also recorded: no detectable change”.
